Values of other authors as cited in publication PMC4096870 (ChemMedChem, 2014).

Legend:
[1] = molecular target: YopH
[2] = system: LYP

| SMILES | Ki [1] [µM] | kinact [1] [s⁻¹] | kinact/KI [1] [M⁻¹ s⁻¹] | IC50 [2] [µM] |
| --- | --- | --- | --- | --- |
| O=P(O)(O)C(Br)c1ccccc1 (stereo not drawn) [BBP, α-bromobenzyl phosphonate] | 4100 | 0.002 | 0.49 |  |
| C=CS(=O)(=O)c1ccccc1 [PVS, phenyl vinyl sulfone] | 350 | 0.001 | 2.9 |  |
| C=CS(=O)(=O)Oc1ccccc1 [PVSN, phenyl vinyl sulfonate] | 290 | 0.01 |  |  |
| O=C(Oc1cc(O)cc2c1C[C@@H](OC(=O)c1cc(O)c(O)c(O)c1)[C@@H](c1cc(O)c(O)c(O)c1)O2)c1cc(O)c(O)c(O)c1 [epigallocatechin-3,5-digallate] |  |  |  | 0.05 |
